What was measured:
[1] = tested on: T1, trehalase (porcine kidney); assay: Glycosidase inhibition (Table 2 panel); format: biochemical
T1 construct: purchased Sigma-Aldrich; host or cells: porcine kidney
From the text: (§1) The enzymes α-D-glucosidase (yeast), β-D-glucosidases (almond, bovine liver), α-D-galactosidase (coffee beans), β-D-galactosidase (bovine liver), α-D-mannosidase (Jack bean), β-D-mannosidase (snail), α-L-rhamnosidase (P. decumbens), α-L-fucosidase (bovine kidney), trehalase (porcine kidney), β-D-glucuronidases (E. coli, bovine liver), amyloglucosidase (A. niger), para-nitrophenyl glycosides, and various disaccharides were purchased from Sigma-Aldrich Co (St. Louis, MO, USA).
(§2) Brush border membranes were prepared from the rat small intestine according to the method of Kessler et al., and were assayed at pH 6.8 for rat intestinal maltase using maltose. For rat intestinal maltase, porcine kidney trehalase, and A. niger amyloglucosidase activities, the reaction mixture contained maltose ([…]) and the appropriate amount of enzyme, and the incubations were performed for 10–30 min at 37 °C. The reaction was stopped by heating at 100 °C for 3 min. After centrifugation (600 g; 10 min), the resulting reaction mixture was added to the Glucose CII-test Wako (Wako Pure Chemical Ind., Osaka, Japan). The absorbance at 505 nm was measured to determine the amount of the released D-glucose. Other glycosidase activities were determined using an appropriate para-nitrophenyl glycoside as substrate at the optimum pH of each enzyme. The reaction mixture contained the substrate ([…]) and the appropriate amount of enzyme. The reaction was stopped by the addition of Na2CO3 ([…]). The released para-nitrophenol was measured spectrometrically at 400 nm. All reactions were run in […].

[2] = tested on: T2, α-D-galactosidase (coffee beans); assay: Glycosidase inhibition (Table 2 panel); format: biochemical
T2 construct: purchased Sigma-Aldrich; host or cells: coffee beans
From the text: as §1, §2

[3] = tested on: α-D-glucosidase (human lysosome); assay: Glycosidase inhibition (Table 2 panel); format: biochemical; details: at 100 μM
From the text: as §1, §2

[4] = tested on: α-D-glucosidase (rat intestinal maltase); assay: Glycosidase inhibition (Table 2 panel); format: biochemical
From the text: as §1, §2

α-D-glucosidase (rice) = α-D-glucosidase (rice) (Oryza sativa subsp. japonica, UniProt Q653V7); assay: Glycosidase inhibition (Table 2 panel); format: biochemical
Chain of α-D-glucosidase (rice) (Q653V7 34-885): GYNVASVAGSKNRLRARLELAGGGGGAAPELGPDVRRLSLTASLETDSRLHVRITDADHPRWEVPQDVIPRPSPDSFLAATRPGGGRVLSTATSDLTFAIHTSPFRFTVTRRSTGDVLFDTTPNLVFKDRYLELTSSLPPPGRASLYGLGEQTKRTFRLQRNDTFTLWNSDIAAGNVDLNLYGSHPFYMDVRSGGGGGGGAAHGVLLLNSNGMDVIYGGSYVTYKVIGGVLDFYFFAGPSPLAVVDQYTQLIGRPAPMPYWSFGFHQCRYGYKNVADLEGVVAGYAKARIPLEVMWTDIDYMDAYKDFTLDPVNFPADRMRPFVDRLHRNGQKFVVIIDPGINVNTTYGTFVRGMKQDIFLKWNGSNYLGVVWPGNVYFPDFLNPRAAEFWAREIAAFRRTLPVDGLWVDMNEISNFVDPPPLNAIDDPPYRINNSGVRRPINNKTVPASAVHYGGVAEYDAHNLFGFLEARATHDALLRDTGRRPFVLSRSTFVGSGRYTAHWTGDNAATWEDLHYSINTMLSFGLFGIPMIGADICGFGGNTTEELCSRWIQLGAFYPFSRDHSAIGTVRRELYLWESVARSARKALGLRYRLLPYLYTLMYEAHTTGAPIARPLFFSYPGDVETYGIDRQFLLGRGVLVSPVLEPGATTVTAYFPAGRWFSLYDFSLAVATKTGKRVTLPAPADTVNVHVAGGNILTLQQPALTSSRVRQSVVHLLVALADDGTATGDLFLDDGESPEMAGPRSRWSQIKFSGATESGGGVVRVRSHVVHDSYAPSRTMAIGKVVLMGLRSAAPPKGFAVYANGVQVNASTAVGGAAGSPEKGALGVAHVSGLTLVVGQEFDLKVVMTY
From the text: as §1, §2

[5] = tested on: T3, α-D-mannosidase (Jack bean); assay: Glycosidase inhibition (Table 2 panel); format: biochemical
T3 construct: purchased Sigma-Aldrich; host or cells: Jack bean
From the text: as §1, §2

[6] = tested on: T4, α-L-fucosidase (bovine kidney); assay: Glycosidase inhibition (Table 2 panel); format: biochemical; details: at 1000 μM
T4 construct: purchased Sigma-Aldrich; host or cells: bovine kidney
From the text: as §1, §2

[7] = tested on: α-L-rhamnosidase (P. decumbens); assay: Glycosidase inhibition (Table 2 panel); format: biochemical
From the text: as §1, §2

[8] = biological target: T5, β-D-galactosidase (bovine liver) (Bos taurus, UniProt F1MNT6); assay: Glycosidase inhibition (Table 2 panel); format: biochemical; details: at 100 μM
T5 sequence (F1MNT6 1-469): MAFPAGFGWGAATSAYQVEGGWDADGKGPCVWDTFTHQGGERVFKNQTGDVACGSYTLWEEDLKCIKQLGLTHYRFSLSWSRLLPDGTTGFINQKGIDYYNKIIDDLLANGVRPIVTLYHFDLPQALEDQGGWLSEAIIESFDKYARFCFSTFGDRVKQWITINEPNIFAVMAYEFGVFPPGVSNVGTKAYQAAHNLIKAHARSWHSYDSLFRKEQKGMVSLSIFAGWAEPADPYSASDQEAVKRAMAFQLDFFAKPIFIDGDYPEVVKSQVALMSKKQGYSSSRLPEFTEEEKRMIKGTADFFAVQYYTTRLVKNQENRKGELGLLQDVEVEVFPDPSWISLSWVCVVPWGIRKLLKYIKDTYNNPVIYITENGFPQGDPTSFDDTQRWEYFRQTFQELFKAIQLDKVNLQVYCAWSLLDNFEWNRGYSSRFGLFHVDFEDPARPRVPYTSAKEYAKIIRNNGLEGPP
From the text: as §1, §2

β-D-glucosidase (almond) = assay: Glycosidase inhibition (Table 2 panel); format: biochemical
From the text: as §1, §2

[9] = biological target: T6, β-D-glucosidase (bovine liver) (Bos taurus, UniProt F1MNT6); assay: Glycosidase inhibition (Table 2 panel); format: biochemical
T6 sequence (F1MNT6 1-469): T5 sequence (F1MNT6 1-469)
From the text: as §1, §2

[10] = tested on: β-D-glucuronidase (bovine liver); assay: Glycosidase inhibition (Table 2 panel); format: biochemical
From the text: as §1, §2

β-D-mannosidase (snail) = assay: Glycosidase inhibition (Table 2 panel); format: biochemical
From the text: as §1, §2

[11] = tested on: β-D-glucosidase (human lysosome); assay: Glycosidase inhibition (Table 2 panel); format: biochemical; details: at 100 μM
[12] = tested on: β-D-galactosidase (E. coli); assay: Glycosidase inhibition (Table 2 panel); format: biochemical; details: at 100 μM
[13] = tested on: β-D-glucanase (T. Longibrachiatum); assay: Glycosidase inhibition (Table 2 panel); format: biochemical; details: at 100 μM
[14] = tested on: N-acetyl-β-D-hexosaminidase (rat intestine); assay: Glycosidase inhibition (Table 3 panel); format: biochemical; details: 1 mg/mL aqueous solution; run in water
Method: (§3) All enzymes and para-nitrophenyl substrates were purchased from Sigma. Enzymes were assayed at 27 °C in citric acid (0.1 M)/disodium hydrogen phosphate (0.2 M) buffers at the optimum pH for the enzyme. The incubation mixture consisted of […] of 1 mg/mL aqueous solution of extract and […] of the appropriate […] para-nitrophenyl substrate made up in buffer at the optimum pH for the enzyme. The reactions were stopped by addition of […] 0.4 M glycine (pH 10.4) during the exponential phase of the reaction, which had been determined at the beginning using uninhibited assays in which water replaced the inhibitor. Final absorbances were read at 405 nm using a Versamax microplate reader (Molecular Devices, Wokingham, UK). Assays were carried out in triplicate, and the values given are means of the three replicates per assay. All reactions were run in water.

[15] = tested on: α-D-glucosidase (rat intestine); assay: Glycosidase inhibition (Table 3 panel); format: biochemical; details: 1 mg/mL aqueous solution; run in water
Method: as §3

[16] = tested on: MCF10A (non-tumour derived normal breast cell line); assay: Cancer screening, MTT growth inhibition; format: cell-based; details: Homo sapiens, MCF-10A, 72 h; for inhibition at 25 µM: 25 µM of drug, read-out: DOSE SCREEN percentage (%) cell growth inhibition MCF10A Breast (normal); for GI50: read-out: DOSE RESPONSE GI50 MCF10A Breast (normal)
[17] = listed as of the 1000 μM series

| Structure (SMILES) | inhibition % Trehalase Porcine Kidney ([1]; at 100 μM) | inhibition % Trehalase Porcine Kidney ([1]; at 1000 μM) | inhibition % α-D-Galactosidase Coffee Beans ([2]; at 100 μM) | inhibition % α-D-Galactosidase Coffee Beans ([2]; at 1000 μM) | inhibition % α-D-Glucosidase Human Lysosome [3] | inhibition % α-D-Glucosidase Rat Intestinal Maltase ([4]; at 100 μM) | inhibition at 100 µM (α-D-glucosidase (rice)) [%] | inhibition % α-D-Mannosidase Jack Bean ([5]; at 100 μM) | inhibition % α-D-Mannosidase Jack Bean ([5]; at 1000 μM) | inhibition % α-L-Fucosidase Bovine Kidney [6] | inhibition % α-L-Rhamnosidase P. decumbens ([7]; at 100 μM) | inhibition % β-D-Glucosidase Almond (β-D-glucosidase (almond); at 100 μM) | inhibition % β-D-Glucosidase Almond (β-D-glucosidase (almond); at 1000 μM) | inhibition at 100 µM [9] [%] | inhibition % β-D-Glucuronidase Bovine Liver ([10]; at 100 μM) | inhibition % β-D-Glucuronidase Bovine Liver ([10]; at 1000 μM) | inhibition % β-D-Mannosidase Snail (β-D-mannosidase (snail); at 100 μM) | inhibition % β-D-Mannosidase Snail (β-D-mannosidase (snail); at 1000 μM) | inhibition % β-D-Glucosidase Human Lysosome [11] | inhibition % β-D-Galactosidase E. coli [12] | further results |
| --- | --- | --- | --- | --- | --- | --- | --- | --- | --- | --- | --- | --- | --- | --- | --- | --- | --- | --- | --- | --- | --- |
| OC[C@H](O)[C@@H]1[C@H](O)[C@H](O)CN1Cc1cccc(B(O)O)c1 [meta 4, N-(3-Methylphenylboronic acid)-1,4-dideoxy-1,4-imino-L-gulitol] | ^cNI ^d(0.8%) | ^aNI ^b(3.4%) | ^cNI ^d(1.1%) | ^aNI ^b(3.7%) | ^cNI ^d(7.2%) | ^cNI ^d(22.8%) | 8 | ^cNI ^d(0%) | ^aNI ^b(0%) | ^aNI ^b(3.0%) | ^cNI ^d(8.3%) | ^cNI ^d(0.6%) | ^aNI ^b(43%) | 0 | ^cNI ^d(0%) | ^aNI ^b(14.7%) | ^cNI ^d(0%) | ^aNI ^b(0%) | ^cNI ^d(13.6%) | ^cNI ^d(4.9%) | IC50 [4, 17]: 588 µM; IC50 (α-D-glucosidase (rice); [17]): 106 µM; inhibition at 100 µM [8]: 24.6%; inhibition at 1000 µM ([9]; at 1000 μM): 37.9%; inhibition % β-D-Glucanase T. Longibrachiatum [13]: ^cNI ^d(1.2%); Percentage inhibition N-Acetyl-β-D-Hexosaminidase Rat Intestine [14]: −2.2%; Percentage inhibition α-D-Glucosidase Rat Intestine [15]: 41.1%; inhibition at 25 µM [16]: 14 ± 13%; GI50 [16]: > 50 µM |
| OB(O)c1ccccc1CN1C[C@@H](O)[C@H]2OC(O)[C@H](O)[C@H]21 (stereo partly drawn) [ortho 3, N-(2-Methylphenylboronic acid)-3,6-dideoxy-3,6-imino-D-gulofuranose] | ^cNI ^d(0%) | ^aNI ^b(0%) | ^cNI ^d(0%) | ^aNI ^b(0%) | ^cNI ^d(0.3%) | ^cNI ^d(0%) | 0 | ^cNI ^d(3.8%) | ^aNI ^b(0%) | ^aNI ^b(2.1%) | ^cNI ^d(0%) | ^cNI ^d(13.7%) | ^aNI ^b(38.8%) | 0 | ^cNI ^d(2.9%) | ^aNI ^b(6.6%) | ^cNI ^d(0%) | ^aNI ^b(0%) | ^cNI ^d(0%) | ^cNI ^d(4.4%) | inhibition % α-D-Glucosidase Rat Intestinal Maltase ([4]; at 1000 μM): ^aNI ^b(0.7%); inhibition at 1000 µM (α-D-glucosidase (rice); at 1000 μM): 0%; inhibition % α-L-Rhamnosidase P. decumbens ([7]; at 1000 μM): ^aNI ^b(3.2%); inhibition % β-D-Glucanase T. Longibrachiatum [13]: ^cNI ^d(0%); Percentage inhibition N-Acetyl-β-D-Hexosaminidase Rat Intestine [14]: 19.2%; Percentage inhibition α-D-Glucosidase Rat Intestine [15]: −1.4%; inhibition at 25 µM [16]: 9 ± 7%; GI50 [16]: > 50 µM |

Source: article PMC12655172, “Borylated 5-Membered Ring Iminosugars: Synthesis and Biological Evaluation for Glycosidase Inhibition and Anticancer Properties for Application in Boron Neutron Capture Therapy (BNCT)—Part 2” (Pharmaceuticals, 2025)
